Assay results reported in patent publication US20130231334A1, “METHODS OF CONTROLLING NEONICOTINOID RESISTANT APHIDS” (SYNGENTA CROP PROTECTION LLC, priority 2010, published 2013).

Tests used:
Assay type in all cases: in vivo
[1] = system: neonicotinoid insecticide resistant aphid strain; assay: Leaf disc spray bioassay on chinese cabbage, aphid mortality (Example 1), resistant strain; details: resistant aphid strain from peach orchard, Avignon region, mixed age aphids, mortality 72 hours after treatment
Method: (§1) 5 cm leaf discs were taken from fully expanded chinese cabbage leaves and placed with the underside facing upwards onto water agar in 5 cm Petri dishes. The leaf discs are infested with between 30 and 40 mixed age aphids 24 hours prior to insecticide treatment. The leaf surface is sprayed with the appropriate test solutions in a Burkhard Potter Tower at an approximate water volume of […]. Test containers are stored at 21° C., 60% RH and 16:8 light/dark. Aphids were assessed for mortality 72 hours after treatment.

[2] = system: neonicotinoid insecticide susceptible strain 4106A; assay: Leaf disc spray bioassay on chinese cabbage, aphid mortality (Example 1), susceptible strain; details: susceptible strain 4106A (Rothamsted Research), mixed age aphids, mortality 72 hours after treatment
Method: as §1

[3] = system: susceptible or neonicotinoid-resistant Myzus persicae population; assay: Pea seedling spray test, mortality of susceptible and neonicotinoid-resistant populations (Example 2); details: ratio of rates for 80% mortality, resistant versus susceptible Myzus persicae; BP80 = lowest known rate providing 80% or more mortality; 6 days after treatment; pea seedlings
Method: Pea seedlings, infested with a susceptible or neonicotinoid-resistant Myzus persicae population of mixed ages, respectively, are treated with the test solutions (200, 50, 12.5, 3, 0.8, 0.2, 0.05 ppm a.i.) in a turn table spray chamber. 6 days after treatment, samples are checked for mortality.
The results of the resistance factor at BP80 (lowest known rate providing 80% or more mortality) are indicated below.

Row | SMILES | LC50 with 95% confidence limit, resistant strain [1] | LC50 with 95% confidence limit, susceptible strain [2] | resistance factor at BP80 [3]
1 | CN/C(=N\[N+](=O)[O-])NCc1cnc(Cl)s1 [clothianidin] | 904 (478-3616) ppm | 0.33 (0.28-0.38) ppm | –
2 | O=C(c1cnccc1C(F)(F)F)N(O)Cc1ccccc1 [323181-02-8] | – | – | >1
3 | Cc1noc(-c2cnccc2C(F)(F)F)n1 [276684-49-2] | – | – | <1
4 | CN/C(=N/CC1CCOC1)N[N+](=O)[O-] (stereo not drawn) [dinotefuran] | 538 (435-696) ppm | 9.95 (8.21-12.5) ppm | –
5 | O=C(N=S(c1ccccc1)c1ccccc1)c1cnccc1C(F)(F)F [362724-14-9] | – | – | 4
6 | CO/N=C(\C)CNC(=O)c1cnccc1C(F)(F)F | – | – | 4
7 | CN(O)C(=O)c1cnccc1C(F)(F)F [323180-93-4] | – | – | Not adequate control for 80% mortality on sensitive & resistance strains
8 | O=C(NCN1CCCC1)c1cnccc1C(F)(F)F [158063-50-4] | – | – | 1
9 | CN1COCN(Cc2cnc(Cl)s2)/C1=N/[N+](=O)[O-] [thiamethoxam] | 148 (128-172) ppm | 0.35 (0.3-0.41) ppm | >250
10 | N#CCNC(=O)c1cnccc1C(F)(F)F [flonicamid] | 2.74 (0.53-6.81) ppm | 1.65 (1.3-2.09) ppm | –
11 | CC(C)N1CN=C(c2cnccc2C(F)(F)F)OC1=O [1098412-17-9] | – | – | 1
12 | CCN(Cc1ccc(Cl)nc1)/C(=C/[N+](=O)[O-])NC [nitenpyram] | 237 (93.7-3566) ppm | 1.26 (1.03-1.61) ppm | –
13 | O=C(NCc1ccc(Cl)cc1)c1cnccc1C(F)(F)F [158063-19-5] | – | – | >16
14 | NC(=O)c1cnccc1C(F)(F)F [158062-71-6] | – | – | 4
15 | CN(C)C(=O)c1cnccc1C(F)(F)F [158063-01-5] | – | – | 1.7
16 | N#C/N=C1\SCCN1Cc1ccc(Cl)nc1 [thiacloprid] | >1000 ppm | 0.38 (0.34-0.42) ppm | –
17 | O=C(NCc1ccccn1)c1cnccc1C(F)(F)F [164149-37-5] | – | – | 4
18 | CNC(=O)c1cnccc1C(F)(F)F [158062-76-1] | – | – | 1
19 | C/C(=N\C#N)N(C)Cc1ccc(Cl)nc1 [acetamiprid] | 49.3 (35.2-72.0) ppm | 0.55 (0.51-0.59) ppm | –
